Columns and labels:
[1] = test system: SW620 cells (KRAS G12V); test: Cell viability assay (Cell Counting Kit-8, 3-day); type: cell-based, human; conditions: SW620, 72 hrs incubation
Outline: (§1)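 Cells seeded at 5,000/well (NCI-H358) or 2,000/well (AGS, SW620), treated next day at 0.5% final DMSO for 72 h. Viability read by CCK-8 (OD450 minus OD650) after 2 h; IC50 from 4-parameter sigmoidal fit.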

[2] = test system: NCI-H358 cells (KRAS G12C); test: Cell viability assay (Cell Counting Kit-8, 3-day); type: cell-based, human; conditions: NCI-H358, 72 hrs incubation
Outline: as §1

[3] = test system: AGS cells (KRAS G12D); test: Cell viability assay (Cell Counting Kit-8, 3-day); type: cell-based, human; conditions: 72 hrs incubation
Outline: as §1

[4] = test system: phosphorylation of ERK, KRAS G12V in SW620; test: pERK inhibition assay; type: cell-based; conditions: SW620 cells
Outline: (§2)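 Phospho-ERK quantified by in-cell ELISA with TMB read-out at OD450 following 4 h compound exposure (final 0.5% DMSO). Cell lines were SW620 (KRAS G12V), AGS (G12D) and NCI-H358 (G12C), grown in RPMI-1640 with 10% FBS. A 4-parameter sigmoidal model gave the IC50.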

[5] = test system: phosphorylation of ERK, KRAS G12D in AGS cells; test: pERK inhibition assay; type: cell-based
Outline: as §2

[6] = test system: phosphorylation of ERK, KRAS G12C in NCI-H358 cells; test: pERK inhibition assay; type: cell-based
Outline: as §2

[7] = target: KRAS G12C-BRAF complex (Homo sapiens (Human), UniProt P01116+P62937, G12C); test: KRAS-BRAF with CYPA (500 nM) interaction assay (TR-FRET, Example 136); type: biochemical; conditions: KRAS G12C-BRAF disruption
Chain of KRAS G12C-BRAF complex (P01116-2 other isoform, or with tags, fused parts or gaps G12C): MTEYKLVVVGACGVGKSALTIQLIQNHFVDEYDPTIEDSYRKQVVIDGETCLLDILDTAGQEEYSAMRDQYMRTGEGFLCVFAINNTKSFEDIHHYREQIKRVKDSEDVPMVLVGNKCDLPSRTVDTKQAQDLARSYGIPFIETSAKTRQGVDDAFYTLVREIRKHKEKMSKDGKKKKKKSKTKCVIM
Chain of KRAS G12C-BRAF complex (P62937 whole entry): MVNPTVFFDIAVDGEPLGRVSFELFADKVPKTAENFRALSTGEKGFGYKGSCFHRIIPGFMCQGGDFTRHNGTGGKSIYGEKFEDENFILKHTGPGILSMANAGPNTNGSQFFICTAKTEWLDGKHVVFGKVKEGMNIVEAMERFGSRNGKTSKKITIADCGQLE

CO[C@@H](C)c1ncc(N2CCN(C)CC2)cc1-c1c2c3cc(cc4c3n1CCC4)-c1csc(n1)C[C@H](NC(=O)[C@@H]1C[C@H]1c1cncnc1C)C(=O)N1CCC[C@H](N1)C(=O)OCC(C)(C)C2 (atropisomer, axis not shown; (M)) [Example 112, (1R,2R)-N-[(7S,13S)-(20M)-20-[2-[(1S)-1-methoxyethyl]-5-(4-methylpiperazin-1-yl)-3-pyridyl]-17,17-dimethyl-8,14-dioxo-15-oxa-4-thia-9,21,30,31-tetrazahexacyclo[23.3.1.1^2,5.1^9,13.0^19,27.0^21,26]hentriaconta-1 (28),2,5 (31), 19,25 (29),26-hexaen-7-yl]-2-(4-methylpyrimidin-5-yl)cyclopropanecarboxamide]
IC50 ([1]; Homo sapiens, SW-620): 0.8 nM | IC50 ([2]; Homo sapiens, NCI-H358, 72 h): 2.2 nM | IC50 ([3]; Homo sapiens, 72 h): 3.4 nM | IC50 ([4]; Homo sapiens, SW-620, 4 h): 0.5 nM | IC50 ([5]; Homo sapiens, AGS, 4 h): 3.4 nM | IC50 ([6]; Homo sapiens, NCI-H358, 4 h): 0.7 nM | IC50 [7]: 10.4 nM

CO[C@@H](C)c1ncc(N2CCN(C)CC2)cc1-c1c2c3cc(cc4c3n1CC(F)(F)C4)-c1csc(n1)C[C@H](NC(=O)[C@H]1C[C@@H]1c1cccnc1)C(=O)N1CCC[C@H](N1)C(=O)OCC(C)(C)C2 (atropisomer, axis not shown; (M)) [Example 92]
IC50 ([1]; Homo sapiens, SW-620): 0.7 nM | IC50 ([2]; Homo sapiens, NCI-H358, 72 h): 2.5 nM | IC50 ([3]; Homo sapiens, 72 h): 8.8 nM | IC50 ([4]; Homo sapiens, SW-620, 4 h): 1 nM | IC50 ([5]; Homo sapiens, AGS, 4 h): 6 nM | IC50 ([6]; Homo sapiens, NCI-H358, 4 h): 1.4 nM | IC50 [7]: 16 nM

CO[C@@H](C)c1ncc(N2CCN(C)CC2)cc1-c1c2c3cc(cc4c3n1CCCO4)-c1csc(n1)C[C@H](NC(=O)[C@H]1[C@H](C)[C@@H]1C)C(=O)N1CCC[C@H](N1)C(=O)OCC(C)(C)C2 (atropisomer, axis not shown; (M)) [Example 100, (1r,2R,3S)-N-[(7S,13S)-(20M)-20-[2-[(1S)-1-methoxyethyl]-5-(4-methylpiperazin-1-yl)-3-pyridyl]-17,17-dimethyl-8,14-dioxo-15,25-dioxa-4-thia-9,21,31,32-tetrazahexacyclo[24.3.1.1^2,5.1^9,13.0^19,28.0^21,27]dotriaconta-1 (29),2,5 (32),19,26 (30),27-hexaen-7-yl]-2,3-dimethyl-cyclopropanecarboxamide]
IC50 ([1]; Homo sapiens, SW-620): 0.7 nM | IC50 ([2]; Homo sapiens, NCI-H358, 72 h): 2.7 nM | IC50 ([3]; Homo sapiens, 72 h): 8.2 nM | IC50 ([4]; Homo sapiens, SW-620, 4 h): 0.7 nM | IC50 ([5]; Homo sapiens, AGS, 4 h): 4.1 nM | IC50 ([6]; Homo sapiens, NCI-H358, 4 h): 1 nM | IC50 [7]: 33.1 nM

COC(C)c1ncc(N2CCN(C)CC2)cc1-c1c2c3cc(cc4c3n1CCO4)-c1csc(n1)CC(NC(=O)C1CC1C)C(=O)N1CCCC(N1)C(=O)OCC(C)(C)C2 [Example 17, (1S,2S)-N-[(7S,13S)-(20M)-20-[2-[(1S)-1-methoxyethyl]-5-(4-methylpiperazin-1-yl)-3-pyridyl]-17,17-dimethyl-8,14-dioxo-15,24-dioxa-4-thia-9,21,30,31-tetrazahexacyclo[23.3.1.1^2,5.1^9,13.0^19,27.0^21,26]hentriaconta-1 (28),2,5 (31),19,25 (29),26-hexaen-7-yl]-2-methyl-cyclopropanecarboxamide]
IC50 [1]: 1.1 nM | IC50 [2]: 10.3 nM | IC50 [3]: 21.7 nM | IC50 ([4]; 4 hours): 1.8 nM | IC50 ([5]; 4 hours): 2.7 nM | IC50 ([6]; 4 hours): 2.9 nM | IC50 [7]: 25.4 nM

CO[C@@H](C)c1ncc(N2CCN3CCCC[C@@H]3C2)cc1-c1c2c3cc(cc4c3n1CCC4)-c1csc(n1)C[C@H](NC(=O)[C@H]1[C@H](C)[C@@H]1C)C(=O)N1CCC[C@H](N1)C(=O)OCC(C)(C)C2 (atropisomer, axis not shown; (M)) [Example 101, (1r,2S,3R)-N-[(7S,13S)-(20M)-20-[5-[(9αR)-1,3,4,6,7,8,9,9a-octahydropyrido[1,2-a]pyrazin-2-yl]-2-[(1S)-1-methoxyethyl]-3-pyridyl]-17,17-dimethyl-8,14-dioxo-15-oxa-4-thia-9,21,30,31-tetrazahexacyclo[23.3.1.1^2,5.1^9,13.0^19,27.0^21,26]hentriaconta-1 (28),2,5 (31),19,25 (29),26-hexaen-7-yl]-2,3-dimethyl-cyclopropanecarboxamide]
IC50 ([1]; Homo sapiens, SW-620): 0.3 nM | IC50 ([2]; Homo sapiens, NCI-H358, 72 h): 1.8 nM | IC50 ([3]; Homo sapiens, 72 h): 6.9 nM | IC50 ([4]; Homo sapiens, SW-620, 4 h): 0.2 nM | IC50 ([5]; Homo sapiens, AGS, 4 h): 2.6 nM | IC50 ([6]; Homo sapiens, NCI-H358, 4 h): 0.9 nM | IC50 [7]: 5.4 nM

Source: US20240417410A1, “TRICYCLIC COMPOUNDS FOR THE TREATMENT OF CANCER” (Hoffmann-La Roche Inc., priority 2023, published 2024)
